Consider six compounds from publication PMC11513923, “Discovery of ZLC491 as a Potent, Selective, and Orally Bioavailable CDK12/13 PROTAC Degrader” (Journal of Medicinal Chemistry, 2024).

The structures appear in SMILES notation.

The target in one assay is T1, CDK13 (Homo sapiens, UniProt Q14004).
T1 construct: Immunoblotting of CDK12 and CDK13 in MDA-MB-231 cells treated with increasing concentrations of ZLC491 for 15 h; endogenous in cells; host or cells: MDA-MB-231
In words: CDK13 degradation in MDA-MB-231 cells by immunoblotting.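 As to Protein Degradation (%DMSO control, 0.3 μM) CDK13: percent of CDK13 protein degraded relative to DMSO control.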 Type of assay: cell-based. Conditions: 0.3 μM; for Protein Degradation (%DMSO control, 0.3 μM) CDK13: MDA-MB-231 cells, 15 h, immunoblotting, normalized against α-tubulin; for Degradation rates of CDK13 at 0.3 μM: supplementary CSV. As to the method:
(§1) The degradation efficiency of the new molecules was assessed by immunoblotting after treatment with the compounds at 0.3 μM in MD-MBA-231 cells for 15 h.
(§2) To further characterize the compound, we determined the half-degradation concentration (DC50) values of ZLC491 in MDA-MB-231 cells. […] We also treated MDA-MB-231 cells with 1 μM ZLC491 at various time points.
(§3) (A) Immunoblotting of CDK12 and CDK13 in MDA-MB-231 cells treated with increasing concentrations of ZLC491 for 15 h (left). Percent remaining CDK12 and CDK13 proteins were plotted for DC50 determination (right). Protein levels were quantified using ImageJ and normalized to corresponding α-tubulin, then plotted using Graphpad Prism 8.0. The data were representative of three independent experiments; (B) immunoblotting of CDK12 and CDK13 proteins in MDA-MB-231 cells treated with ZLC491 for various time points; immunoblotting of CDK12 and CDK13 in HCC38 (C) and MDA-MB-436 (D) cells treated with increasing concentrations of ZLC491 for 15 h. α-Tubulin was used as a loading control. TEXT PRINTED IN THE PICTURE: (A) ZLC491: MDA-MB-231: CDK12 DC50 = 0.032μM; MDA-MB-231: CDK13 DC50 = 0.028μM DOUBTS OF THE COPYIST ABOUT THIS PICTURE: ZLC491, CDK12 DC50: 0.032 read from small print, the digits 3 and 2 are uncertain / ZLC491, CDK13 DC50: 0.028 read from small print, the last digit may be 8, 6 or 3
(§4) Generally, the tested cells were washed by ice-cold PBS buffer (Gibco) and lysed with an SDS lysis buffer (62.5 mM Tris, 2% w/v SDS, 10 glycerol, 50 mM DTT, 0.01% w/v bromophenol blue) on ice, after which the protein lysate samples were collected to 1.5 mL microcentrifuge tubes and treated with ultrasonic for 10 s, following with a 100 °C incubation for 10 min and a 4 °C centrifugation of 12000 rpm for 10 min. An equal amount of protein was loaded to 4–8% Bis-Tris gels and underwent an SDS-PAGE electrophoresis at 55V for 30 min and 95V for 90 min. Proteins on gels were then transferred to a polyvinylidene difluoride (PVDF) membrane (Bio-Rad) with a wet electro transfer system (Bio-Rad). The PVDF membrane was cut into bands and incubated in a blocking reagent (5% defatted milk powder dissolved in TBST) at room temperature for 1–2 h. Incubate membrane and primary antibody (at the appropriate dilution and diluent as recommended in the product webpage) at 4 °C for 12–14 h, followed with three times washes by TBST. The washed membranes were incubated in a secondary antibody solution (HRP-linked antirabbit IgG or antimouse IgG (CST), 1:2000 diluted into TBST) at room temperature for 2 h. Membranes were photographed in Amersham Imager 800 system using StarSignal plus regent (GenStar) or Omni-ECL reagent (EpiZyme). Compounds MG132, MLN4924, Bafilomycin A1 and pomalidomide were purchased from MedChemExpress (MCE) LLC.

The next assay concerns the target CDK12 (Homo sapiens, UniProt Q9NYV4). In words: CDK12 degradation in MDA-MB-231 cells by immunoblotting. Type of assay: cell-based. Further details: Immunoblotting of CDK12 and CDK13 in MDA-MB-231 cells treated with increasing concentrations of ZLC491 for 15 h; endogenous in cells; host or cells: MDA-MB-231. The settings on record: 0.3 μM; for Protein Degradation (%DMSO control, 0.3 μM) CDK12: MDA-MB-231 cells, 15 h, immunoblotting, normalized against α-tubulin; for Degradation rates of CDK12 at 0.3 μM: supplementary CSV. As to the method:
as §1, §2, §3, §4
For orientation: Immunoblotting shows a protein as a band on a membrane.

T1 sequence (Q14004 whole entry): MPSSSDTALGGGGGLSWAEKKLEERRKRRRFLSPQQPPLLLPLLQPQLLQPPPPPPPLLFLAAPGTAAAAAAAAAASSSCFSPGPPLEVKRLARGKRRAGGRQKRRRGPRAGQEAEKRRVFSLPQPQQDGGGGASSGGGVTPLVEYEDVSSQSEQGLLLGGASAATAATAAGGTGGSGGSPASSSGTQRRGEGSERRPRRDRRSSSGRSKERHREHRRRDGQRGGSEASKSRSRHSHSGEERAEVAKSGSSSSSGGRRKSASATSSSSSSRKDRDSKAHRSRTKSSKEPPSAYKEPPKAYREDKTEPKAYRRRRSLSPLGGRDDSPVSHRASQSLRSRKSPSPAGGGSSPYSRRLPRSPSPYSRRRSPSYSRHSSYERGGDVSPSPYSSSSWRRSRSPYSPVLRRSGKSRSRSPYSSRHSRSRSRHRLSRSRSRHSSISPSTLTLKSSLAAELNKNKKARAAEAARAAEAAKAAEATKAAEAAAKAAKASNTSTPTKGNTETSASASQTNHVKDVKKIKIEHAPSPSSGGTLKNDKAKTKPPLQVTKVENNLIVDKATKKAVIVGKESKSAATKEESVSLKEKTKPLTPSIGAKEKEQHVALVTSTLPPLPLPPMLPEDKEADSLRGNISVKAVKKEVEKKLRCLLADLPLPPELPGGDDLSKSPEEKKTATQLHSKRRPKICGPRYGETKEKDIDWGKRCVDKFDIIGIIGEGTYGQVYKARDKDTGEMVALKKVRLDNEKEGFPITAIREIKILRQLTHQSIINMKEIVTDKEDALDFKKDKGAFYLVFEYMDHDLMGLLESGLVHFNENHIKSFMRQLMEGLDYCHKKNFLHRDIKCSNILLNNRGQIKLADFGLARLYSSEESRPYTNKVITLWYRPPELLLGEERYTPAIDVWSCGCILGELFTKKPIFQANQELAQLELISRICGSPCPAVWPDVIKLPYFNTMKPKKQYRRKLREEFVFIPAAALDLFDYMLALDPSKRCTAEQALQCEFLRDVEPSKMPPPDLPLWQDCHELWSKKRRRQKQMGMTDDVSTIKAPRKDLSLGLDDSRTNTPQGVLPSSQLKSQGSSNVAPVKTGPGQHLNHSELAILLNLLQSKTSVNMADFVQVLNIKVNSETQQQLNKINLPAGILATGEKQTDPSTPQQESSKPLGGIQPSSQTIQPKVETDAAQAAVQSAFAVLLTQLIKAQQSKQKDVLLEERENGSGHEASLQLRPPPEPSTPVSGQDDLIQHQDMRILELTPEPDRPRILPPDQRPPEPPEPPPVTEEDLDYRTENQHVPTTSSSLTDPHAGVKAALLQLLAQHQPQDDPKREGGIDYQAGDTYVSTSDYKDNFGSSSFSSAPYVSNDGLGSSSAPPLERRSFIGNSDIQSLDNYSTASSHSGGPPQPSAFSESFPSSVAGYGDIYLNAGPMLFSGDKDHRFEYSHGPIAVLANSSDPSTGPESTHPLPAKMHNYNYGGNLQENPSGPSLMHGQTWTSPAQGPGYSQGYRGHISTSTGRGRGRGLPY
T1 sequence (O75909 whole entry partner): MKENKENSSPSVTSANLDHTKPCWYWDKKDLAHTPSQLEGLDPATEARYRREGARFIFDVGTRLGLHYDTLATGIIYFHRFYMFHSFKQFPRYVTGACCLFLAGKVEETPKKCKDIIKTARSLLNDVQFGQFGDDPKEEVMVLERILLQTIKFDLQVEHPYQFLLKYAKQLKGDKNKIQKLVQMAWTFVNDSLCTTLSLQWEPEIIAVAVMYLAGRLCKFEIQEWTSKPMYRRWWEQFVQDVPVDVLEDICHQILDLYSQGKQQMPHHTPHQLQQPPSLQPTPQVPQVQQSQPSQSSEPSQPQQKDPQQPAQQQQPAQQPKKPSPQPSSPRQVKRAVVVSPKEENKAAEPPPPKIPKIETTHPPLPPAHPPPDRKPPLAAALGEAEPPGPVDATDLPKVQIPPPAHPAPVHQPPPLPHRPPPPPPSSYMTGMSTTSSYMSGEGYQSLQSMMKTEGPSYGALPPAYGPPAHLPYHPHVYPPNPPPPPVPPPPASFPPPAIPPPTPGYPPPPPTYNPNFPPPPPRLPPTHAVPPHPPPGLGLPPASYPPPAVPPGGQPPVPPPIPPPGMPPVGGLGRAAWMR
Chain of CDK12 (Q9NYV4 whole entry): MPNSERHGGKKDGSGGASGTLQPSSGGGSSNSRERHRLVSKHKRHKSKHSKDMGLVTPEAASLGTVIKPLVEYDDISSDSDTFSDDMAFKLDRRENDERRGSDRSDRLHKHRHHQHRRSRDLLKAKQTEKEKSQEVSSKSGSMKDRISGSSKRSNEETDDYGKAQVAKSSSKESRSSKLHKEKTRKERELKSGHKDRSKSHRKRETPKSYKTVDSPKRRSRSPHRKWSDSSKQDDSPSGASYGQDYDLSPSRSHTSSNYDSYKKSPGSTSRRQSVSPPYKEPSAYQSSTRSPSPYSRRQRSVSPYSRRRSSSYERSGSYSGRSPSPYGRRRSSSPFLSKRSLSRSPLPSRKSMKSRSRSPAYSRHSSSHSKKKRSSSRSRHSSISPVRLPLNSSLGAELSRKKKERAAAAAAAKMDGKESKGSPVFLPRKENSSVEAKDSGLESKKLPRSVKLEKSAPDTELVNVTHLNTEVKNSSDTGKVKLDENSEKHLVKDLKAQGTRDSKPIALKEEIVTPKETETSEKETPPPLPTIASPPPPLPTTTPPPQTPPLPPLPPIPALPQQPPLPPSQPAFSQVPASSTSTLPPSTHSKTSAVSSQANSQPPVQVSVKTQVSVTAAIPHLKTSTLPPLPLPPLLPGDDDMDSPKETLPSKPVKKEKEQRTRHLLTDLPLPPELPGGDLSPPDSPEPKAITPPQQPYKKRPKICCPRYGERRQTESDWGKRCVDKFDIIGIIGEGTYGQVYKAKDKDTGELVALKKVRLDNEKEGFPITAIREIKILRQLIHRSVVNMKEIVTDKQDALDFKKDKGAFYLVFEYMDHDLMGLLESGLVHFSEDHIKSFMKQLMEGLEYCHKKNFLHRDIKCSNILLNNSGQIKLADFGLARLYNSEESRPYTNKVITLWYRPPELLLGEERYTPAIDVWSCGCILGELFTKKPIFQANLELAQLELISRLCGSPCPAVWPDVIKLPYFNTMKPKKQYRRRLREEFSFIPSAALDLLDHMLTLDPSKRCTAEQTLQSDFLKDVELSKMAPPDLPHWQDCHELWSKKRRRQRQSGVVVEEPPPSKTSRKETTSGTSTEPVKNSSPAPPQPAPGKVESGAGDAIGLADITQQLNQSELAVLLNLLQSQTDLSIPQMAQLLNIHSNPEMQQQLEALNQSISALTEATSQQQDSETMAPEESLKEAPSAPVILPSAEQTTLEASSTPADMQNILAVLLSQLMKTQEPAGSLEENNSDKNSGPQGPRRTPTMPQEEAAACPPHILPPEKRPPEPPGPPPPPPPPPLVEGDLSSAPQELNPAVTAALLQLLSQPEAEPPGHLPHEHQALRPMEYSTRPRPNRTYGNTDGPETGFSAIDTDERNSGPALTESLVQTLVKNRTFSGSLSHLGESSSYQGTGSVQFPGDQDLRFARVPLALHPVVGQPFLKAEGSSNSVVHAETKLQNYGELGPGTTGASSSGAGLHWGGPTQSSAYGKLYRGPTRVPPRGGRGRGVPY
Chain of CDK12 (O75909 whole entry partner): as the sequence (O75909 whole entry partner) above

With `N#Cc1ccc(N[C@H]2CC[C@H](N(C(=O)NCc3ccccc3)c3ccc(N4CCN(C(=O)C5CN(c6ccc7c(c6)C(=O)N(C6CCC(=O)NC6=O)C7=O)C5)CC4)cc3)CC2)nc1` (stereo partly drawn) [4a, 3-Benzyl-1-((1r,4r)-4-((5-cyanopyridin-2-yl)amino)cyclohexyl)-1-(4-(4-(1-(2-(2,6-dioxopiperidin-3-yl)-1,3-dioxoisoindolin-5-yl)azetidine-3-carbonyl)piperazin-1-yl)phenyl)urea], at CDK13, the “Protein Degradation (%DMSO control, 0.3 μM) CDK13” value came out at 38% and the Degradation rates of CDK13 at 0.3 μM stood at 38%. Also, on CDK12, the “Protein Degradation (%DMSO control, 0.3 μM) CDK12” value was 35% and the Degradation rates of CDK12 at 0.3 μM amounted to 35%.
On to `N#Cc1ccc(N[C@H]2CC[C@H](N(C(=O)NCc3ccccc3)c3ccc(N4CCN(C(=O)C5CCN(c6ccc7c(c6)C(=O)N(C6CCC(=O)NC6=O)C7=O)C5)CC4)cc3)CC2)nc1` (stereo partly drawn) [4b, 3-Benzyl-1-((1r,4r)-4-((5-cyanopyridin-2-yl)amino)cyclohexyl)-1-(4-(4-(1-(2-(2,6-dioxopiperidin-3-yl)-1,3-dioxoisoindolin-5-yl)pyrrolidine-3-carbonyl)piperazin-1-yl)phenyl)urea], for which, on CDK13, the “Protein Degradation (%DMSO control, 0.3 μM) CDK13” value is 65% and the Degradation rates of CDK13 at 0.3 μM turned out to be 65%. On CDK12, the “Protein Degradation (%DMSO control, 0.3 μM) CDK12” value came out at 61% and the Degradation rates of CDK12 at 0.3 μM turned out to be 61%.
As to `N#Cc1ccc(N[C@H]2CC[C@H](N(C(=O)NCc3ccccc3)c3ccc(N4CCN(C(=O)C5CCN(c6ccc7c(c6)C(=O)N(C6CCC(=O)NC6=O)C7=O)CC5)CC4)cc3)CC2)nc1` (stereo partly drawn) [4c, 3-Benzyl-1-((1r,4r)-4-((5-cyanopyridin-2-yl)amino)cyclohexyl)-1-(4-(4-(1-(2-(2,6-dioxopiperidin-3-yl)-1,3-dioxoisoindolin-5-yl)piperidine-4-carbonyl)piperazin-1-yl)phenyl)urea], on CDK13, the “Protein Degradation (%DMSO control, 0.3 μM) CDK13” value was found to be 51% and the Degradation rates of CDK13 at 0.3 μM amounted to 51%. Besides, at CDK12, the “Protein Degradation (%DMSO control, 0.3 μM) CDK12” value was 38% and the Degradation rates of CDK12 at 0.3 μM was found to be 38%.
For the compound `N#Cc1ccc(N[C@H]2CC[C@H](N(C(=O)NCc3ccccc3)c3ccc(N4CCN(CC5CN(c6ccc7c(c6)C(=O)N(C6CCC(=O)NC6=O)C7=O)C5)CC4)cc3)CC2)nc1` (stereo partly drawn) [4d, 3-Benzyl-1-((1r,4r)-4-((5-cyanopyridin-2-yl)amino)cyclohexyl)-1-(4-(4-((1-(2-(2,6-dioxopiperidin-3-yl)-1,3-dioxoisoindolin-5-yl)azetidin-3-yl)methyl)piperazin-1-yl)phenyl)urea], on CDK13, the “Protein Degradation (%DMSO control, 0.3 μM) CDK13” value is given as 71% and the Degradation rates of CDK13 at 0.3 μM turned out to be 71%. At CDK12, the “Protein Degradation (%DMSO control, 0.3 μM) CDK12” value was 60% and the Degradation rates of CDK12 at 0.3 μM was 60%.
Turning to `N#Cc1ccc(N[C@H]2CC[C@H](N(C(=O)NCc3ccccc3)c3ccc(N4CCN(C[C@@H]5CCN(c6ccc7c(c6)C(=O)N(C6CCC(=O)NC6=O)C7=O)C5)CC4)cc3)CC2)nc1` (stereo partly drawn) [4e, 3-Benzyl-1-((1r,4s)-4-((5-cyanopyridin-2-yl)amino)cyclohexyl)-1-(4-(4-(((3S)-1-(2-(2,6-dioxopiperidin-3-yl)-1,3-dioxoisoindolin-5-yl)pyrrolidin-3-yl)methyl)piperazin-1-yl)phenyl)urea], at CDK13, the “Protein Degradation (%DMSO control, 0.3 μM) CDK13” value was 70% and the Degradation rates of CDK13 at 0.3 μM is 70%. At CDK12, the “Protein Degradation (%DMSO control, 0.3 μM) CDK12” value is reported as 50% and the Degradation rates of CDK12 at 0.3 μM turned out to be 50%.
For `N#Cc1ccc(N[C@H]2CC[C@H](N(C(=O)NCc3ccccc3)c3ccc(N4CCN(C[C@H]5CCN(c6ccc7c(c6)C(=O)N(C6CCC(=O)NC6=O)C7=O)C5)CC4)cc3)CC2)nc1` (stereo partly drawn) [4f, 3-Benzyl-1-((1r,4r)-4-((5-cyanopyridin-2-yl)amino)cyclohexyl)-1-(4-(4-(((3R)-1-(2-(2,6-dioxopiperidin-3-yl)-1,3-dioxoisoindolin-5-yl)pyrrolidin-3-yl)methyl)piperazin-1-yl)phenyl)urea], at CDK13, the “Protein Degradation (%DMSO control, 0.3 μM) CDK13” value came out at 64% and the Degradation rates of CDK13 at 0.3 μM amounted to 64%. Further, at CDK12, the “Protein Degradation (%DMSO control, 0.3 μM) CDK12” value is 59% and the Degradation rates of CDK12 at 0.3 μM amounted to 59%.
